Results published in patent US12187709B2 (Genentech, Inc., priority 2021, dated 2025).

Tests used:
c-Cbl = c-Cbl (Homo sapiens (Human), UniProt P22681); experiment: C-Cbl LCK Ub TR-FRET assay (C-cbl Lck HTRF); type: biochemical
Procedure, shortened: (§1)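 After the ubiquitination reaction, detection mixture was added and plates incubated 20 min at room temperature before reading. IC50 values were calculated with wells lacking LCK as the low control and DMSO as the high control.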

[1] = target: Human Cbl-b (residues 40-426) (Homo sapiens (Human), UniProt Q13191); experiment: Cbl-b SPR assay; type: binding; conditions: for Fold of selectivity: C-cbl SPR Kd vs Cbl-b SPR Kd; for Kd: SPR, 20° C.
Procedure, shortened: (§2)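 Protein captured at 1300-1500 RU; compounds run as 6-point 2-fold series in multi-cycle kinetics (60 s contact, 40 μl/min, 120-1200 s dissociation), fitted 1:1. For slow binders, kd came from chaser-compound occupancy over time, fixed in a single-cycle fit (5 concentrations, top 500 nM).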

c-Cbl (residues 47-435) = c-Cbl (residues 47-435) (Homo sapiens (Human), UniProt P22681); experiment: c-Cbl SPR assay; type: binding; conditions: 20° C.
Procedure, shortened: as §2

Cbl-b = Cbl-b (Homo sapiens (Human), UniProt Q13191); experiment: Cbl-b LCK Ub TR-FRET assay (Cbl-b Lck HTRF); type: biochemical; conditions: for IC50: Cbl-b LCK Ub TR-FRET; for fold-selectivity (Cbl-b over C-cbl): ratio C-cbl Lck HTRF IC50 / Cbl-b Lck HTRF IC50
Procedure, shortened: as §1

Chain of Cbl-b (Q13191 40-426): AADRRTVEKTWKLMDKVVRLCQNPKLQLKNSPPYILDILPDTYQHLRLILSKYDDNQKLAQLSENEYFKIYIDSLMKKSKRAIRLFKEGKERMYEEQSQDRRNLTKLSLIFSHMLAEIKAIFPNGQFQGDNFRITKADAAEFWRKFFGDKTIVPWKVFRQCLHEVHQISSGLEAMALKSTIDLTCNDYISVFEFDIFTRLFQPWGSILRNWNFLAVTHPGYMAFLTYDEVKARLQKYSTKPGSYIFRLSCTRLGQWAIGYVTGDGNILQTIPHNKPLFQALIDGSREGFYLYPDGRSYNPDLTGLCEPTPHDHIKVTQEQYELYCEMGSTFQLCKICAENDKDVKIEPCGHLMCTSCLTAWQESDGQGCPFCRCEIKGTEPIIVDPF
Chain of Human Cbl-b (residues 40-426) (Q13191 40-426): as above
Chain of c-Cbl (residues 47-435) (P22681 47-435): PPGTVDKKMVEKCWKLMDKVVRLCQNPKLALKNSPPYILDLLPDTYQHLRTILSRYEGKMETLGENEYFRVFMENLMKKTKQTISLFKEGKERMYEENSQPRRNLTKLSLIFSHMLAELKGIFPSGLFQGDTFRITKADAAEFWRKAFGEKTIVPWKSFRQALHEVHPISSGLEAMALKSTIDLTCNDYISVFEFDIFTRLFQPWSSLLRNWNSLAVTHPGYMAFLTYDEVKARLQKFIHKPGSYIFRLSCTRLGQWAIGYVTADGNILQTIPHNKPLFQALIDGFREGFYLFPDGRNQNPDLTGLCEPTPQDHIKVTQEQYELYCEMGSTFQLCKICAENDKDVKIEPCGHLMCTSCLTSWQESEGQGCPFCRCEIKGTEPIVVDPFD
Chain of c-Cbl (P22681 47-435): as above

Row | SMILES | IC50 (c-Cbl) | Fold of selectivity [1] | Kd [1] | Kd (c-Cbl (residues 47-435)) | IC50 (Cbl-b) | fold-selectivity (Cbl-b over C-cbl) (Cbl-b)
1 | CO[C@H]1C[C@](c2cc(N[C@H](C)CC#N)cc(N3Cc4c(cc(CNC5(C)CCC5)cc4C(F)(F)F)C3=O)c2)(c2nncn2C)C1 (single isomer, unassigned) [Compound 221] | 16 nM | 5.8× | 1.3 nM | 7.6 nM | 11 nM | 1.5x
2 | CO[C@H]1C[C@@](c2cc(N[C@@H](C)CC#N)cc(N3Cc4c(cc(CNC5(C)CCC5)cc4C(F)(F)F)C3=O)c2)(c2nncn2C)C1 (single isomer, unassigned) [Compound 233] | 200 nM | 7.1× | 21 nM | 150 nM | 40 nM | 5.0x
3 | Cn1cnnc1[C@H](c1cccc(N2Cc3c(cc(CNC4(C)CCC4)cc3C(F)(F)F)C2=O)c1)C1CC(OCC(F)F)C1 (single isomer, unassigned) [Compound 262] | 270 nM | 12× | 13 nM | 150 nM | 38 nM | 7.1x
4 | Cn1cnnc1[C@H](c1cccc(N2Cc3c(cc(CNC4(C)CCC4)cc3C(F)(F)F)C2=O)c1)C1CC(OCC(F)F)C1 (single isomer, unassigned) [Compound 263] | 18 nM | 5.4× | 1.9 nM | 10 nM | 10 nM | 1.8x
5 | CCOC1CC([C@H](c2cccc(N3Cc4c(cc(CNC5(C)CCC5)cc4C(F)(F)F)C3=O)c2)c2nncn2C)C1 (single isomer, unassigned) [Compound 265] | 3400 nM | 7.5× | 180 nM | 1300 nM | 310 nM | 11x
6 | C[C@@H](NC1(C)CCC1)c1cc(Cl)c2c(c1)C(=O)N(c1cccc([C@]3(c4nncn4C)C[C@@H](F)C3)c1)C2 (single isomer, unassigned) [Compound 288] | 4.9 nM | 3.5× | 0.1 nM | 0.35 nM | 5.3 nM | 0.92x

More lines, in order of falling IC50 (c-Cbl), values ahead:

Row | IC50 (c-Cbl) | Fold of selectivity [1] | Kd [1] | Kd (c-Cbl (residues 47-435)) | IC50 (Cbl-b) | fold-selectivity (Cbl-b over C-cbl) (Cbl-b) | SMILES
7 | 170 nM | 7.6× | 25 nM | 190 nM | 37 nM | 4.5x | CCOC1CC([C@@H](c2cccc(N3Cc4c(cc(CNC5(C)CCC5)cc4C(F)(F)F)C3=O)c2)c2nncn2C)C1 (single isomer, unassigned) [Compound 267]
8 | 72 nM | 5.6× | 6.9 nM | 39 nM | 18 nM | 4.0x | CO[C@H]1C[C@](c2cc(N[C@@H](C)CC#N)cc(N3Cc4c(cc(CNC5(C)CCC5)cc4C(F)(F)F)C3=O)c2)(c2nncn2C)C1 (single isomer, unassigned) [Compound 225]
9 | 43 nM | 8.5× | 4.6 nM | 37 nM | 18 nM | 2.4x | C[C@H](NC1(C)CCC1)c1cc(Cl)c2c(c1)C(=O)N(c1cccc([C@]3(c4nncn4C)C[C@@H](F)C3)c1)C2 (single isomer, unassigned) [Compound 289]
10 | 21 nM | 8.7× | 1.9 nM | 16 nM | 16 nM | 1.3x | CO[C@H]1C[C@@](c2cc(N[C@H](C)CC#N)cc(N3Cc4c(cc(CNC5(C)CCC5)cc4C(F)(F)F)C3=O)c2)(c2nncn2C)C1 (single isomer, unassigned) [Compound 228]
11 | 16 nM | 5.5× | 0.22 nM | 1.1 nM | 16 nM | 1.0x | Cn1cnnc1[C@H](c1cccc(N2Cc3c(cc(CNC4(C)CCC4)cc3C(F)(F)F)C2=O)c1)C1CCC1 (single isomer, unassigned) [Compound 259]
